Columns and labels:
Format in all cases: cell-based
BmOR3 [1] = molecular target: T1, BmOR3 (Bombyx mori, UniProt Q5FBE0); experiment: GloSensor cAMP assay; conditions: BmOR3-transfected HEK293 cells, not in mock cells; 1 μM forskolin
Experimental: The GloSensor cAMP assay was performed as previously described ([40], [55], [56]). Briefly, HEK293 cells were transfected with the BmOR3 plasmid or empty vector pcDNA3.1 together with the GloSensor plasmid. 24 h after transfection, cells were distributed into 96-well microplates at a density of 50,000 cells/well. After another 24 h, the cells were incubated with DMEM containing 2% (v/v) GloSensor cAMP reagent for 2 h at 37 °C. Cells were then treated with varying concentrations of bombykal followed by the stimulation of 1 μM forskolin. The luminescence intensity was measured using an EnVision multi-label microplate detector (PerkinElmer).

BmOR3 [2] = molecular target: T1, BmOR3; experiment: Western blotting of ERK and SRC phosphorylation; conditions: BmOR3-expressing HEK293 cells; 1 μM, 15 min; abrogated in β-arrestin siRNA-transfected cells
Experimental: HEK293 cells transfected with BmOR3 in the absence or presence of βarrestin1/2 siRNA were starved for 12 h at 37 °C before stimulated with 1 μM bombykal for 15 min. The cells were lysed in ice-cold lysis buffer (50 mM Tris-HCl, pH 7.4, 150 mM NaCl, 1 mM NaF, 1% Triton, 2 mM EDTA, 1% NP-40, 1% protease and phosphatase inhibitor cocktail), and the supernatant was collected after centrifugation. Proteins were separated by PAGE and transferred to PVDF membrane. After blocking in PBS containing 5% bovine serum albumin and 0.1% Tween-20, the membrane was incubated with the primary antibody at 4 °C overnight, followed by incubation with HRP conjugate–secondary antibody at RT for an hour. The signals were detected with the ECL system (Thermo Fisher Scientific). Primary antibodies were as follows: anti-ERK (Santa Cruz, Cat. No. sc-154); anti-pERK (Proteintech, Cat. No. 15361-1-AP); anti-SRC (Cell Signaling Technology, Cat. No. 2109S); anti-pSRC(Y416) (Cell Signaling Technology, Cat. No. 2101S); anti-beta actin (ORIGENE, Cat. No. TA811000); anti-βarrestin1(Proteintech, Cat. No. 15361-1-AP); anti-βarrestin2 (Proteintech, Cat. No. 10171-1-AP).

BmOR3 [3] = molecular target: T1, BmOR3; experiment: BRET-based internalization assay (Rluc-BmOR3 / Lyn-YFP); conditions: HEK293 cells; 1 μM, 20 min
Experimental: BRET-based internalization assay was performed as previously described ([57]). Briefly, HEK293 cells treated with Ctrl or β-arrestin-1/2 siRNA, or pretransfected with BmArr, were transiently transfected with N-terminal Rluc-fused BmOR3 and plasma membrane marker Lyn-YFP. Twenty-four hours after transfection, the cells were detached and distributed into a 96-well microplate. After another 24-h incubation at 37 °C, the cells were stimulated with vehicle or 1 μM bombykal at 37 °C for 20 min. Rluc substrate coelenterazine h was added at a final concentration of 5 μM before light emissions of YFP and Rluc were recorded using a Mithras LB 940 microplate reader (Berthold Technologies). The BRET signal was calculated as the ratio of emission of YFP to Rluc.

BmOR3 [4] = molecular target: T1, BmOR3; experiment: G protein recruitment BRET assay (Gi-Rluc to YFP-BmOR3); conditions: HEK293 cells, 2 min stimulation
Experimental: Gi1-Rluc, Gi2-Rluc, and Gi3-Rluc plasmids were constructed according to previous report ([30]). HEK293 cells were transiently cotransfected with N-terminal YFP-tagged BmOR3 together with Gi-Rluc plasmids. Twenty-four hours after transfection, cells were distributed into a 96-well microplate. After another 24 h, the cells were stimulated with an increasing amount of bombykal for 2 min. The light emission of Rluc (485 nm) and YFP (530 nm) was measured after the addition of the Rluc substrate coelenterazine h (5 μM) using a Mithras LB 940 multimode reader (Berthold Technologies). The BRET signal was calculated as the ratio of emission of YFP to Rluc. The net BERT value was calculated by subtracting the BRET signal obtained in the cells transfected with Rluc-Gi plasmids only.

BmOR3 [5] = molecular target: T1, BmOR3; experiment: Arrestin recruitment BRET assay; conditions: HEK293 cells, 10 min stimulation
Experimental: HEK293 cells were transiently cotransfected with the N-terminal YFP-tagged BmOR3 together with N-terminal Rluc-fused β-arrestin-1, β-arrestin-2, or BmArr plasmids. Twenty-four hours after transfection, cells were distributed into a 96-well microplate and incubated for additional 24 h. The cells were stimulated with varying concentrations of bombykal for 10 min, and the BRET signal between YFP (530 nm) and Rluc (485 nm) was measured after the addition of the Rluc substrate coelenterazine h (5 μM) using a Mithras LB 940 multimode reader (Berthold Technologies). The BRET signal was calculated as the ratio of emission of YFP to Rluc.

T1 sequence (Q5FBE0 entry or part of it): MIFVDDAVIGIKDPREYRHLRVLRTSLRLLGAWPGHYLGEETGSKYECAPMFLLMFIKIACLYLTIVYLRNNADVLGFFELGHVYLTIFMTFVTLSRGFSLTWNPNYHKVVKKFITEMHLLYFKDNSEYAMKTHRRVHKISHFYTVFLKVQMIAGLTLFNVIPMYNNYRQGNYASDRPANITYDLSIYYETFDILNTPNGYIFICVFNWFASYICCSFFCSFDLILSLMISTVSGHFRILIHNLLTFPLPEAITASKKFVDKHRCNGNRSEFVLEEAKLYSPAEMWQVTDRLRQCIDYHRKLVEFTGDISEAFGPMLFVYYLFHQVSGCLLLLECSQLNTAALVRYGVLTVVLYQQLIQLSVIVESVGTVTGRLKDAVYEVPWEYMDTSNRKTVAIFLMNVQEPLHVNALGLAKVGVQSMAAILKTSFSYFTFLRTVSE

CCC/C=C\C=C\CCCCCCCCC=O [bombykal] was tested, and the “forskolin-induced cAMP” value (BmOR3 [1]) was “concentration-dependent decrease”, the “phosphorylation level of ERK” value (BmOR3 [2]) was “significantly elevated” and the “phosphorylation level of SRC” value (BmOR3 [2]) was “significantly elevated”. For the same compound, the “BmOR3 internalization (BRET signal between Rluc-BmOR3 and Lyn-YFP)” value (BmOR3 [3]) was “significant decrease in the BRET signal”, the EC50 (BmOR3 [4]; Gi1, read-out: EC50 of coupling of Rluc-tagged Gi1 to YFP-fused BmOR3) was 11.7 ± 1.19 nM and the EC50 (BmOR3 [4]; Gi2, read-out: EC50 of coupling of Rluc-tagged Gi2 to YFP-fused BmOR3) was 22 ± 3.22 nM. It also gave an EC50 (BmOR3 [4]; Gi3, read-out: EC50 of coupling of Rluc-tagged Gi3 to YFP-fused BmOR3) of 10.6 ± 2.06 nM, an EC50 (BmOR3 [5]; BmArr1, read-out: potency of recruitment of BmArr1 to BmOR3 (concentration-dependent)) of 90 ± 11.1 nM and an EC50 (BmOR3 [5]; β-arrestin-2, read-out: potency of recruitment of β-arrestin-2 to BmOR3 (concentration-dependent)) of 151 ± 21.3 nM.
